Activity calls are given as the source filed them. No cut-off for these calls is given here.
Tests used:
[1] = target: Serine/threonine-protein kinase B-raf (Homo sapiens, UniProt P15056, Y340D/Y341D)
[2] = Non-competitive inhibition of N-terminal GST-tagged human BRAF/MEK1/RAF1 Y340D/Y341D double mutant measured after 2 hrs in presence of 33.33 uM of ATP by TR-FRET assay
[3] = Non-competitive inhibition of N-terminal GST-tagged human BRAF/MEK1/RAF1 Y340D/Y341D double mutant measured after 2 hrs in presence of 100 uM of ATP by TR-FRET assay
[4] = target: Dual specificity mitogen-activated protein kinase kinase 1 (Homo sapiens) (UniProt Q02750); settings: at 6.25 to 25 µM
[5] = Therapeutic index, ratio of CC50 for human rhabdomyosarcoma cells to EC50 for EV71 BC08 GU475127 infected in human rhabdomyosarcoma cells; settings: read-out: Ratio CC50/EC50
Enterovirus A71 [6] = assay: Inhibition of VP1 expression in human rhabdomyosarcoma cells infected with EV71 BC08 GU475127 pre-treated for 1 hr followed by viral infection measured after 24 hrs by western blotting analysis
[7] = target: Dual specificity mitogen-activated protein kinase kinase; MEK1/2 (Homo sapiens) (UniProt P36507+Q02750); assay: Inhibition of MEK1/2 phosphorylation in human rhabdomyosarcoma cells infected with EV71 BC08 GU475127 at 6.25 to 25 uM pre-treated for 1 hr followed by viral infection measured after 24 hrs by western blotting analysis
[8] = Cytotoxicity activity against human rhabdomyosarcoma cells after 24 hrs by MTT assay; assay type: cell-based, Rhabdomyosarcoma cell
[9] = Non-competitive inhibition of N-terminal GST-tagged human BRAF/MEK1/RAF1 Y340D/Y341D double mutant measured after 2 hrs in presence of 300 uM of ATP by TR-FRET assay
Enterovirus A71 [10] = assay: Antiviral activity against EV71 BC08 GU475127 infected in human rhabdomyosarcoma cells assessed as reduction in viral induced cytopathic effect measured after 24 hrs by phase-contrast microscopy; assay type: functional, organism-based; settings: Enterovirus A, BC08 GU475127, 24 h

Chain of Serine/threonine-protein kinase B-raf (P15056 whole entry, looked up, stated change not applied): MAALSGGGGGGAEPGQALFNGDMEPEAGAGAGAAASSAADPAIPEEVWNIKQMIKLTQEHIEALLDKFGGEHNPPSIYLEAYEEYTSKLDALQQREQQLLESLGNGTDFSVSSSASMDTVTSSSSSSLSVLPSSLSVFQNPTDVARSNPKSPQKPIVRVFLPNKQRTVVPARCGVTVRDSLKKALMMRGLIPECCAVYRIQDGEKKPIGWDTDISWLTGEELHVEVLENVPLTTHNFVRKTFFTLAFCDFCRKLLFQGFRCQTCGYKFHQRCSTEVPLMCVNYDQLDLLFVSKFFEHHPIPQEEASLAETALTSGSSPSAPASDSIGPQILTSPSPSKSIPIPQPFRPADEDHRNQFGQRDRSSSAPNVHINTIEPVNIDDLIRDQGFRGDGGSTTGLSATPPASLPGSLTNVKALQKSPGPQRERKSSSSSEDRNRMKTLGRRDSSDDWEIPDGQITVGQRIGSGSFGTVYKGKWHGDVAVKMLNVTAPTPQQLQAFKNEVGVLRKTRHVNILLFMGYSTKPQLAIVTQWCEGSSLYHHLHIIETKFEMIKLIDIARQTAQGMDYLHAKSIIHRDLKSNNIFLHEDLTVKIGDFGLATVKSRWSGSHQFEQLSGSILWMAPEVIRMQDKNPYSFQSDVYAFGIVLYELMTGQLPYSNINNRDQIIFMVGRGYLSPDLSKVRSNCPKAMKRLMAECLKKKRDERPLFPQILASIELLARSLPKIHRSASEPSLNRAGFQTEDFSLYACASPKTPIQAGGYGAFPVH
Chain of Dual specificity mitogen-activated protein kinase kinase; MEK1/2 (Homo sapiens) (P36507 whole entry, looked up): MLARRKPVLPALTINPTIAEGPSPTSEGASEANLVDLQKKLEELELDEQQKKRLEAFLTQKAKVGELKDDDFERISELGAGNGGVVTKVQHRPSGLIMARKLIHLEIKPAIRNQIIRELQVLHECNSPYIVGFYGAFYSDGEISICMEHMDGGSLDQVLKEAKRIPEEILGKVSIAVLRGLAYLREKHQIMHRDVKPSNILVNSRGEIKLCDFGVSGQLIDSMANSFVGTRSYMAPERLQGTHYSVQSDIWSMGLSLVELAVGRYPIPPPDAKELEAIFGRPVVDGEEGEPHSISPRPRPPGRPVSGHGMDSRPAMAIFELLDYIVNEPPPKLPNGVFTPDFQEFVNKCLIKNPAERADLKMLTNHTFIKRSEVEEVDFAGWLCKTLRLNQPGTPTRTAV
Chain of Dual specificity mitogen-activated protein kinase kinase; MEK1/2 (Homo sapiens) (Q02750 whole entry, looked up): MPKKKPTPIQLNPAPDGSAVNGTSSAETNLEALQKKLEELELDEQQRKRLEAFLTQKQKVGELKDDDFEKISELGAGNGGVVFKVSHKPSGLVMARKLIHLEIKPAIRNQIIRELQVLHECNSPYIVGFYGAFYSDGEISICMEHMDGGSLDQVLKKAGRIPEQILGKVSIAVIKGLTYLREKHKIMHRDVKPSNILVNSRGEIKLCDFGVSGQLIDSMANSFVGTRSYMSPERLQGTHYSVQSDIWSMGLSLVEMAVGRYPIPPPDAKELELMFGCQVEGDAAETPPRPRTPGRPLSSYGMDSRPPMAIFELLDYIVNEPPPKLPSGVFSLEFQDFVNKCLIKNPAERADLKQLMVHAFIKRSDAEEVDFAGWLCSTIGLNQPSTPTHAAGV
Chain of Dual specificity mitogen-activated protein kinase kinase 1 (Homo sapiens) (Q02750 whole entry): as the sequence (Q02750 whole entry, looked up) above

Row | SMILES | IC50 [1] | other results
1 | CN(C)C(=O)Oc1ccc2c(=O)n(Cc3ccccc3F)c(=O)oc2c1 | > 10 µM | 
2 | CN(C)C(=O)Oc1ccc2c(=O)n(Cc3ccccc3NS(C)(=O)=O)c(=O)oc2c1 | > 10 µM | 
3 | CNS(=O)(=O)Nc1cccc(Cn2c(=O)oc3cc(OC(=O)C(C)C)ccc3c2=O)c1F | 0.72 µM | 
4 | CS(=O)(=O)Nc1cccc(Cn2c(=O)oc3cc(OC(=O)c4ccccc4)ccc3c2=O)c1F | > 10 µM | 
5 | COc1ccc2c(=O)n(Cc3cccc(NS(=O)(=O)NCCC#N)c3F)c(=O)oc2c1 | > 10 µM | 
6 | CN(C)C(=O)Oc1ccc2c(=O)n(Cc3cccc(NS(=O)(=O)NCc4ccccc4)c3F)c(=O)oc2c1 | 1.49 µM | 
7 | CCC(=O)Oc1ccc2c(=O)n(Cc3cccc(NS(=O)(=O)NC)c3F)c(=O)oc2c1 | 0.23 µM | 
8 | CCCC(=O)Oc1ccc2c(=O)n(Cc3cccc(NS(=O)(=O)NC)c3F)c(=O)oc2c1 | 1.2 µM | 
9 | CNS(=O)(=O)Nc1cccc(Cn2c(=O)oc3cc(OC(=O)N(C)C)ccc3c2=O)c1F | 0.055 µM | IC50 [2]: 0.181 µM; IC50 [3]: 0.056 µM; inhibition [4]: Active; selectivity ratio [5]: > 98; inhibition (Enterovirus A71 [6]): Dose-dependent effect; inhibition [7]: Active; CC50 at 24 h [8]: > 100 µM; IC50 [9]: 0.054 µM; EC50 (Enterovirus A71 [10]): 1.02 µM
10 | CCS(=O)(=O)Nc1cccc(Cn2c(=O)oc3cc(OC(=O)N(C)C)ccc3c2=O)c1F | 0.2 µM | 
11 | CN(C)C(=O)Oc1ccc2c(=O)n(Cc3ccc(F)c(NS(C)(=O)=O)c3)c(=O)oc2c1 | 9.87 µM | 
12 | CCS(=O)(=O)Oc1ccc2c(=O)n(Cc3cccc(NS(=O)(=O)NC)c3F)c(=O)oc2c1 | 0.67 µM | 
13 | CN(C)C(=O)Oc1ccc2c(=O)n(Cc3cccc(NS(C)(=O)=O)c3F)c(=O)oc2c1 | 0.3 µM | 
14 | CN(C)C(=O)Oc1ccc2c(=O)n(Cc3cccc(NS(=O)(=O)NCCC#N)c3F)c(=O)oc2c1 | 0.06 µM | selectivity ratio [5]: > 25; inhibition (Enterovirus A71 [6]): Dose-dependent effect; inhibition [7]: Active; CC50 at 24 h [8]: > 100 µM; EC50 (Enterovirus A71 [10]): 3.92 µM
15 | CNC(=O)c1cc(Oc2ccc(NC(=O)Nc3ccc(Cl)c(C(F)(F)F)c3)cc2)ccn1 [SORAFENIB] |  | CC50 at 24 h [8]: 7.05 µM
16 | CN(C)C(=O)Oc1ccc2c(=O)n(Cc3ccc(F)cc3)c(=O)oc2c1 | > 10 µM | 
17 | CC(=O)Nc1cccc(Cn2c(=O)oc3cc(OC(=O)N(C)C)ccc3c2=O)c1 | > 10 µM | 
18 | CN(C)C(=O)Oc1ccc2c(=O)n(Cc3cccc(NS(=O)(=O)NCC(F)(F)F)c3F)c(=O)oc2c1 | 0.42 µM | 
19 | CNS(=O)(=O)Nc1cccc(Cn2c(=O)oc3cc(OS(C)(=O)=O)ccc3c2=O)c1F | 2.54 µM | 
20 | CN(C)C(=O)Oc1ccc2c(=O)n(Cc3cccc(NS(N)(=O)=O)c3F)c(=O)oc2c1 | 0.84 µM | 
21 | CN(C)C(=O)Oc1ccc2c(=O)n(Cc3ccc(NS(C)(=O)=O)cc3)c(=O)oc2c1 | > 10 µM | 
22 | CN(C)C(=O)Oc1ccc2c(=O)n(Cc3cccc(NS(C)(=O)=O)c3)c(=O)oc2c1 | 5.92 µM | 
23 | CC(C)NS(=O)(=O)Nc1cccc(Cn2c(=O)oc3cc(OC(=O)N(C)C)ccc3c2=O)c1F | 0.21 µM | 
24 | CN(C)C(=O)Oc1ccc2c(=O)n(Cc3cccc(NS(=O)(=O)Nc4ccccc4)c3F)c(=O)oc2c1 | 1.64 µM | 
25 | O=C(NOC[C@H](O)CO)c1ccc(F)c(F)c1Nc1ccc(I)cc1F |  | inhibition (Enterovirus A71 [6]): Dose-dependent effect
26 | CN(C)C(=O)Oc1ccc2oc(=O)n(Cc3cccc(NS(C)(=O)=O)c3F)c(=O)c2c1 | > 10 µM | 
27 | CNS(=O)(=O)Nc1cccc(Cn2c(=O)oc3cc(OC(C)=O)ccc3c2=O)c1F | 0.61 µM | 
28 | CN(C)C(=O)Oc1ccc2c(=O)n(Cc3cccc([N+](=O)[O-])c3)c(=O)oc2c1 | > 10 µM | 
